One test has as its target Insulin receptor (Homo sapiens, UniProt P06213). Put plainly: Selectivity interaction (Ambit KINOMEscan and KiNATiv profiling in Jurkat cells) EUB0000090b INSR. It is filed as cell-based. The note with it: at 1 µM.
For test [1], the target named is Leukocyte tyrosine kinase receptor (Homo sapiens, UniProt P29376). Put plainly: Selectivity interaction (KinomeScan (DiscoverX)) EUB0000607a LTK. The note with it: at 10 µM.
Test [2] concerns the target T1, Ephrin type-A receptor 3 (Homo sapiens) (UniProt P29320).
T1 sequence (whole entry): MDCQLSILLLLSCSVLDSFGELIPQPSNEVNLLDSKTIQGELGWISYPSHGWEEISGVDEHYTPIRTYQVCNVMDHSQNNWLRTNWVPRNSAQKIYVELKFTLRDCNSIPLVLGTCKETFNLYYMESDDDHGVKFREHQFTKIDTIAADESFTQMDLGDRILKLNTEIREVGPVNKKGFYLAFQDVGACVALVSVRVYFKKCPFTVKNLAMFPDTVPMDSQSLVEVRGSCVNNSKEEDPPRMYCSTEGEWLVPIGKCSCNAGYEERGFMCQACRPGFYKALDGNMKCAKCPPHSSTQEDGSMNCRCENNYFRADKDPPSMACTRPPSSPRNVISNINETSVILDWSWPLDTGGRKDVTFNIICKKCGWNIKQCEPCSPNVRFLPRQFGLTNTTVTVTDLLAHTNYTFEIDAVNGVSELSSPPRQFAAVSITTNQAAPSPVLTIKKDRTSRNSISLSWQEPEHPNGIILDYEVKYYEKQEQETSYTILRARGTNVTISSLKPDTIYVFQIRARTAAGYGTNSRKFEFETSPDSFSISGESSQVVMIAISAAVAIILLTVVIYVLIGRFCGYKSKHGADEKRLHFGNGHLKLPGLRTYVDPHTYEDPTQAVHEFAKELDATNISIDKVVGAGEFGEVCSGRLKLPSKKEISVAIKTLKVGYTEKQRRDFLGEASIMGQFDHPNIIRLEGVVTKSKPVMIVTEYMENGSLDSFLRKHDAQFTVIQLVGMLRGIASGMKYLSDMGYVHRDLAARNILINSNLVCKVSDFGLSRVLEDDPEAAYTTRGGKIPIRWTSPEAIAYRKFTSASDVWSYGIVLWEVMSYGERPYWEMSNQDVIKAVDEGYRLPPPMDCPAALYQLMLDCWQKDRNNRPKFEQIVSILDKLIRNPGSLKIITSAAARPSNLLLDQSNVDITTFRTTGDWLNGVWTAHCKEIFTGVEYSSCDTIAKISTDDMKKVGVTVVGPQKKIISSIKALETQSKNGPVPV
The test is described as follows: Selectivity interaction (KinomeScan (DiscoverX)) EUB0000607a EPHA3. To be noted: at 10 µM.

The target in test [3] is Serine/threonine-protein kinase MARK2 (Homo sapiens) (UniProt Q7KZI7). To be noted: at 10 µM.
Sequence of Serine/threonine-protein kinase MARK2 (Homo sapiens) (Q7KZI7 whole entry): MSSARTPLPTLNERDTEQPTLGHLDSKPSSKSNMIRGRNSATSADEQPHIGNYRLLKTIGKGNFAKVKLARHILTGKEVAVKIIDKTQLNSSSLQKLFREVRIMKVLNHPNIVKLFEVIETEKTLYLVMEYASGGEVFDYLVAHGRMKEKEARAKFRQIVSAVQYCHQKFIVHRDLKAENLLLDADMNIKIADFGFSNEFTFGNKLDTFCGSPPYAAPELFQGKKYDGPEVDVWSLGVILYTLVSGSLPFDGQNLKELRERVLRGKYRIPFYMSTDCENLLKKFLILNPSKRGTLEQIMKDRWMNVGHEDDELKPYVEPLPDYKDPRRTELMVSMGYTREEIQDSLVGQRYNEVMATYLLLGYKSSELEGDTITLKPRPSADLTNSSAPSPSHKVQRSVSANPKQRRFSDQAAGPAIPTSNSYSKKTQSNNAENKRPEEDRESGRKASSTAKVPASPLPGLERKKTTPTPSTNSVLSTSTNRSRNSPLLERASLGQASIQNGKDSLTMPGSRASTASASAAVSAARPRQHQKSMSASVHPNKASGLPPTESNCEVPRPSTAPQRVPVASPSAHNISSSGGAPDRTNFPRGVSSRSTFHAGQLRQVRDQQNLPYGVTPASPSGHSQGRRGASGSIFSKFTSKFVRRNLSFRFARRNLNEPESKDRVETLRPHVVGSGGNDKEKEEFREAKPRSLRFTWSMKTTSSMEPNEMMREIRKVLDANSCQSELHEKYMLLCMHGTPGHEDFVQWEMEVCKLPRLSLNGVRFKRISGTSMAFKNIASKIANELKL
Test [4] deals with Histone-lysine N-methyltransferase SETDB1 (Homo sapiens) (UniProt Q15047). The test is described as follows: Selectivity interaction (Methyltransferase screen (Scintillation proximity assays)) EUB0000255b SETDB1. On the technique in general: Scintillation proximity formats need no separation of bound from free tracer.
Test [5] deals with Mitogen-activated protein kinase 11 (Homo sapiens) (UniProt Q15759). The test is described as follows: Selectivity interaction (KinomeScan (DiscoverX)) EUB0001619a MAPK11. The note with it: at 1 µM.
Sequence of Mitogen-activated protein kinase 11 (Homo sapiens) (Q15759 whole entry): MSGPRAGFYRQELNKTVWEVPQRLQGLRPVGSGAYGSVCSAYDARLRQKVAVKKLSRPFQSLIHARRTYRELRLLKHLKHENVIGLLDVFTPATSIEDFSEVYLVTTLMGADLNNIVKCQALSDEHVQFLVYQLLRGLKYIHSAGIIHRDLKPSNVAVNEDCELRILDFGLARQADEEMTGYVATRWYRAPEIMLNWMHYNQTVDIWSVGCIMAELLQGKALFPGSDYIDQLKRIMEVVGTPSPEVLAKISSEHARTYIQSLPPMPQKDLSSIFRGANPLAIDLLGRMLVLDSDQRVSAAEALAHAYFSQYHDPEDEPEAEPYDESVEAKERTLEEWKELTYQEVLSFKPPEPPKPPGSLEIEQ
Test [6] concerns the target Cyclin-dependent kinase 17 (Homo sapiens) (UniProt Q00537). The test is described as follows: Selectivity interaction (ActivX KiNativ screen (kinase selectivity in THP-1 cell lysates)) EUB0000639a CDK17. Format: subcellular. The note with it: lysate, at 0.01 µM.
Test [7] addresses Serine/threonine-protein kinase 38 (Homo sapiens) (UniProt Q15208). The test is described as follows: Selectivity interaction (ActivX KiNativ screen (kinase selectivity in THP-1 cell lysates)) EUB0000639a STK38. To be noted: lysate, at 1 µM. It is filed as subcellular.
Test [8] has as its target Mitogen-activated protein kinase 1 (Homo sapiens, UniProt P28482). The test is described as follows: Selectivity interaction (Millipore kinase profiler) EUB0000124b MAPK1. To be noted: at 10 µM.
For test [9], the target named is T2, Dual specificity mitogen-activated protein kinase kinase 5 (Homo sapiens) (UniProt Q13163).
T2 sequence (whole entry): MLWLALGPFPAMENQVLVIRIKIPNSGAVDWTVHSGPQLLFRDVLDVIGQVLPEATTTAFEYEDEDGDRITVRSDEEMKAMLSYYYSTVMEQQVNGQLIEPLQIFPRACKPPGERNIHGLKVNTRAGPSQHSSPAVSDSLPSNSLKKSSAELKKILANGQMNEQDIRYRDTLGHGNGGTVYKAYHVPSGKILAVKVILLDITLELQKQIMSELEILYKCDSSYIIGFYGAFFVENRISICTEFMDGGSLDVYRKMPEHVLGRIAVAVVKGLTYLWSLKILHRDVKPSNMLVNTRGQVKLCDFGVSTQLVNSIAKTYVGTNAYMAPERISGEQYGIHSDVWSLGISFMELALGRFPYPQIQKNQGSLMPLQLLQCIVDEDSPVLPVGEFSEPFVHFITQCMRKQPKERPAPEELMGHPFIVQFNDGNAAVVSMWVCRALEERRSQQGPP
The test is described as follows: Selectivity interaction (ProQinase) EUB0000171b MAP2K5.

Test [10] deals with Serine/threonine-protein kinase pim-3 (Homo sapiens) (UniProt Q86V86). Put plainly: Selectivity interaction (ProQinase) EUB0000171b PIM3.
The target in test [11] is Histone-lysine N-methyltransferase ASH1L (Homo sapiens) (UniProt Q9NR48). The test is described as follows: Selectivity interaction (Transferase panel (protein, RNA, and DNA methyltransferases. and EP300 (acetyltransferase))) EUB0000270b ASH1L.
In test [12] the target is 3',5'-cyclic-AMP phosphodiesterase 4B (Homo sapiens) (UniProt Q07343). Put plainly: Selectivity interaction (Panel of kinases, GPCRs, ion channels and transporters (enzymatic assay)) EUB0000223bCl PDE4B.
Sequence of 3',5'-cyclic-AMP phosphodiesterase 4B (Homo sapiens) (Q07343 whole entry): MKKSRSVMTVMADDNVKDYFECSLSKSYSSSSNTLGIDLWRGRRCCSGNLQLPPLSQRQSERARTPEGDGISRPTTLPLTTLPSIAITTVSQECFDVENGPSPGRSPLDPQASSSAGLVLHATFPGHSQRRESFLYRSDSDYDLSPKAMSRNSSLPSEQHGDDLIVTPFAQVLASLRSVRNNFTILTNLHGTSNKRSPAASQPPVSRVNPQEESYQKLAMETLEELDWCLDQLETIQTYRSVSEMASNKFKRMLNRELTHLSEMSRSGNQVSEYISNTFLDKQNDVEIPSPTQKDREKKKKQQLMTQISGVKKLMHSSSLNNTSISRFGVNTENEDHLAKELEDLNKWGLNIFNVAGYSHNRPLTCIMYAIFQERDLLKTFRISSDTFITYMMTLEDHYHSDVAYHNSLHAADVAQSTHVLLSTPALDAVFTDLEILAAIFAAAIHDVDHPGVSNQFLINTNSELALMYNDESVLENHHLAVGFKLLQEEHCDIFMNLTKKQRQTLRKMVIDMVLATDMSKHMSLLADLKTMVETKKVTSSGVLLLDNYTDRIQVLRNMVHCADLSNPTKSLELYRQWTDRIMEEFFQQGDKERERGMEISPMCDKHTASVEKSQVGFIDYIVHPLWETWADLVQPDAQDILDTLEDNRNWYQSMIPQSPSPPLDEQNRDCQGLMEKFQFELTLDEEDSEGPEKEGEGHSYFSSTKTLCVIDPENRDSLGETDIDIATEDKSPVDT
Test [13] addresses T3, Rhodopsin kinase GRK7 (Homo sapiens) (UniProt Q8WTQ7).
T3 sequence (whole entry): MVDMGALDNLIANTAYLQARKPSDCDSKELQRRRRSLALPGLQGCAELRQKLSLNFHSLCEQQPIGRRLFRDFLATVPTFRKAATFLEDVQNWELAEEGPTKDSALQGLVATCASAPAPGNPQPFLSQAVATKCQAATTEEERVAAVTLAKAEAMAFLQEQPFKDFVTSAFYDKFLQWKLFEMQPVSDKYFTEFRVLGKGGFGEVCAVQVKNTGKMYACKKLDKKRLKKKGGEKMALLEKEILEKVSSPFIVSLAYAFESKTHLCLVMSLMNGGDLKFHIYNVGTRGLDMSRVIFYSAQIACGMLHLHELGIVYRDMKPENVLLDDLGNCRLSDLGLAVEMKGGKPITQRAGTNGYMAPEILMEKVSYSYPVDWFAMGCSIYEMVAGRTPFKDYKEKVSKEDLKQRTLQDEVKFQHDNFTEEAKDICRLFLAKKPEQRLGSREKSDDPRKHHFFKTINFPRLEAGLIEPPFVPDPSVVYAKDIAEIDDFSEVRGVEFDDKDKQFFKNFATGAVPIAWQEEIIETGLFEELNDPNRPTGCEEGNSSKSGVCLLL
Put plainly: Selectivity interaction (KinomeScan (DiscoverX)) EUB0000618a GRK7. To be noted: at 10 µM.

Each structure is given as a SMILES string.

Sequence of Serine/threonine-protein kinase 38 (Homo sapiens) (Q15208 2-465 limits assumed): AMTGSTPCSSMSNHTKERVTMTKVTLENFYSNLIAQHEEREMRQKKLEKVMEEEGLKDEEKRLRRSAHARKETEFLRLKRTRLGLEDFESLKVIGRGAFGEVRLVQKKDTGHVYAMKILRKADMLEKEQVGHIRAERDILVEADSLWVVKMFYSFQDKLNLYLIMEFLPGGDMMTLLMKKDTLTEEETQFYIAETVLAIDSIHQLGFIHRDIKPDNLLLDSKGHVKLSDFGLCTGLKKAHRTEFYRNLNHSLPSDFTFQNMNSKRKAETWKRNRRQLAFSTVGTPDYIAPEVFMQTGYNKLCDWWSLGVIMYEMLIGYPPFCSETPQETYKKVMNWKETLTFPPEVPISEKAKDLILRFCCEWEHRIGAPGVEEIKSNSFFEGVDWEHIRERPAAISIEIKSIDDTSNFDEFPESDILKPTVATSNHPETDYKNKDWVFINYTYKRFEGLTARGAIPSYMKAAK
Sequence of Leukocyte tyrosine kinase receptor (P29376 whole entry): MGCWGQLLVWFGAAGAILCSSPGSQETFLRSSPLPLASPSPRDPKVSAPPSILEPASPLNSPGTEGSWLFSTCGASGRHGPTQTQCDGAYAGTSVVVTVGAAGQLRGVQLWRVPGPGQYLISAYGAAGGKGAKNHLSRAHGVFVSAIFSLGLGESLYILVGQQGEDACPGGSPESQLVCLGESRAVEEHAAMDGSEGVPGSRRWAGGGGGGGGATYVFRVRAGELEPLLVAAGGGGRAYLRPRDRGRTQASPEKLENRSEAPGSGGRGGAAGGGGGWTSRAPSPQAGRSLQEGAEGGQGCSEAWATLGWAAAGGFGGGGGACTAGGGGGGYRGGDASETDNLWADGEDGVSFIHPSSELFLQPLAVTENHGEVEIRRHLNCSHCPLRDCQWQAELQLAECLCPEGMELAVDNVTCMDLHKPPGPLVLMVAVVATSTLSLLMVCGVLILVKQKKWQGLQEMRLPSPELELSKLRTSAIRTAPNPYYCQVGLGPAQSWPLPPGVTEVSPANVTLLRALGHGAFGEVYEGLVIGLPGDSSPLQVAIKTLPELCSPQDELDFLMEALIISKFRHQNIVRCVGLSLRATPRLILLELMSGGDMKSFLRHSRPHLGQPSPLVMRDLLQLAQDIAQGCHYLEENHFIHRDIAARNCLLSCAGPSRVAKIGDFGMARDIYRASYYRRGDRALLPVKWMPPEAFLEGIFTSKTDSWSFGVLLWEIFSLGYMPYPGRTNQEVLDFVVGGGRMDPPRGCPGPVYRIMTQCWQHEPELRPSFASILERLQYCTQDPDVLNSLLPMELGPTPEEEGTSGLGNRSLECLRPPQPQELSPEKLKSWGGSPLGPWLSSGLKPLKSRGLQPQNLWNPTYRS
Sequence of Cyclin-dependent kinase 17 (Homo sapiens) (Q00537 whole entry, looked up): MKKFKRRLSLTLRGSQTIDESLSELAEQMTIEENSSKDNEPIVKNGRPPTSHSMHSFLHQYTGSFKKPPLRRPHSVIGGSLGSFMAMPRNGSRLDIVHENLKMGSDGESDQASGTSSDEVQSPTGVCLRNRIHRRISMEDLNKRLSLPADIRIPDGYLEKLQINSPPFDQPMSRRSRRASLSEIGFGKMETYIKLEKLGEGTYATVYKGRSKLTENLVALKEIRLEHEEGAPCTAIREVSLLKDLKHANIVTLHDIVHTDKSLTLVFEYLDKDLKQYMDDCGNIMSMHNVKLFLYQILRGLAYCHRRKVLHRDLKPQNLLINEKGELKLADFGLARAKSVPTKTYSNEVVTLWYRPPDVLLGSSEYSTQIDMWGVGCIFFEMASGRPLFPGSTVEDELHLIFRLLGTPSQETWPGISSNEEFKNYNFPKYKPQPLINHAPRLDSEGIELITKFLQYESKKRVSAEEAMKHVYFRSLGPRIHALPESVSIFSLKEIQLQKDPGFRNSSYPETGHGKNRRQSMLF
Sequence of Mitogen-activated protein kinase 1 (P28482 whole entry): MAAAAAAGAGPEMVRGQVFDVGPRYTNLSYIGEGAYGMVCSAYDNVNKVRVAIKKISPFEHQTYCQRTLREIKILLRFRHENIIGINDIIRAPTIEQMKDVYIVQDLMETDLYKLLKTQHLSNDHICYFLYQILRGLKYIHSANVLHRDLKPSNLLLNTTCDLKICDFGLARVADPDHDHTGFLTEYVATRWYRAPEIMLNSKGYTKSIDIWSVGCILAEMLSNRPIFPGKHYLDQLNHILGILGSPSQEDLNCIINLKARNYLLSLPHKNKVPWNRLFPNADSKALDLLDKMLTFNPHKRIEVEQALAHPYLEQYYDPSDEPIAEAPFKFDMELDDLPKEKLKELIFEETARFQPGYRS

Regarding `CN(C)C/C=C/C(=O)Nc1ccc(C(=O)N2CCCC(Nc3ncc(Cl)c(-c4c[nH]c5ccccc45)n3)C2)cc1` (stereo not drawn), the % of control at Insulin receptor was found to be 100%.

With `CNC(=O)Nc1ccc(-c2nc(N3CC4CCC(C3)O4)c3cnn(C4CCC5(CC4)OCCO5)c3n2)cc1`, the % of control amounted to 68% in test [1] and 100% in test [2].

On to `Cc1cc([C@@H](C)Nc2ccccc2C(=O)O)c2nc(N3CCOCC3)cc(=O)n2c1` [AZD-6482], for which the % of control in test [3] stood at 90%.

Regarding `COCCN1CCC(c2cc(CN(C)C(=O)c3cccc(Oc4ccccc4)c3)ccn2)CC1`, the values for the % activity in test [4] (at 1 µM) and in test [4] (at 10 µM) were over 95% and over 90%, respectively.

Molecule `N#Cc1cccc(-c2c[nH]c3ncnc(N4CCOCC4)c23)c1` came in with a % of control in test [5] of 100%.

`CC[C@@H]1[C@H](F)C(=O)N[C@@H]1COc1nccc2cc(C(N)=O)c(OC)cc12` [ZIMLOVISERTIB]: the % of inhibition in test [6] worked out at 16.3%; in test [7], 65.8%.

`CC(=O)Nc1cccc(-n2c(=O)n(C3CC3)c(=O)c3c(Nc4ccc(I)cc4F)n(C)c(=O)c(C)c32)c1` showed a % of control in [8] of 86%.

With `C=CC(=O)Nc1cccc(C(=O)Nc2ccc(Nc3cc(-c4[nH]c(SC)nc4C)ccn3)cc2)c1`, the % of control worked out at 87% in test [9] (at 1 µM), 60% in test [9] (at 5 µM), 93% in test [10] (at 1 µM) and 82% in test [10] (at 5 µM).

`Cc1cc(CN)cc(C)c1-c1ncn(C)c1-c1cncn1C`: the values for the % activity in [11] (at 1 µM) and in [11] (at 10 µM) were over 90% and over 80%, respectively.

In test [12], `COc1cc(C(=O)N2CC[C@@H](O)[C@@H](N)C2)cc2nc(-c3cc4ccccc4n3CC3CC3)n(C)c12` returned a pXC50 of 4.4 M.

In turn, `O[C@H]1CC[C@H](Nc2ncc3nc(Nc4c(F)cc(F)cc4F)n([C@H]4CCOC4)c3n2)CC1` showed a % of control in test [13] of 86%.

Values taken from ChEMBL document CHEMBL5465560, “Selectivity Literature for EUbOPEN Chemogenomic Library” (2024).
